This assay addresses T1, Mammalian 20S proteasome (bovine 20S) (Bos taurus, UniProt Q32KL2+Q3MHN0+Q3T0X5+Q5E987).
T1 construct: gene PSMB5; with Proteasome subunit beta type-1; Proteasome subunit beta type-2; Proteasome subunit beta type-3; Proteasome subunit beta type-4
Briefly: fluorogenic peptide hydrolysis. The following applies: chymotrypsin-like activity; 100 uM substrate, pH 7.4. Type of assay: biochemical.

Starred links: 1 amine or outer side, 2 acyl side, 3 side chain; linkers in the order of their positions; H or OH if unused. Residues, ends and D or L forms follow the SMILES beside them. *: point of attachment. AMC = Cc1cc(=O)oc2cc(N*)ccc12; Suc = O=C(CCC(=O)[*:2])[*:1]

For the compound `Cc1cc(=O)oc2cc(NC(=O)[C@H](Cc3ccc(O)cc3)NC(=O)[C@@H](NC(=O)[C@H](CC(C)C)NC(=O)[C@H](CC(C)C)NC(=O)CCC(=O)O)C(C)C)ccc12` [suc-LLVY-amc] (Suc-LLVY-{AMC}), the fluorogenic peptide hydrolysis result is given as “Proteasome activity (linear rate of LLVY-amc hydrolysis)”.
